We go through 29 molecules from patent US8071620B2, “Carbamic acid compounds comprising a bicyclic heteroaryl group as HDAC inhibitors” (Topotarget UK Limited, priority 2003, dated 2011).

Counter-ions that a name gives are not always drawn.

The subject of data set [1] is JURKAT human T-cell line. Description: Secondary assay: cell proliferation inhibition WST-1, Jurkat. The format is cell-based. The note with it: Jurkat cells, 48 h. The protocol:
(§1) Compounds with HDAC inhibition activity, as determined using the primary assay, were subsequently evaluated using secondary cell-based assays. The following cell lines were used:
JURKAT—Human T-cell line (ATCC no. TIB-152).
(§2) Cells were cultured, exposed to candidate compounds, and incubated for a time, and the number of viable cells was then assessed using the Cell Proliferation Reagent WST-1 from Boehringer Mannheim (Cat. No. 1 644 807), described below.
(§3) Cells were plated in 96-well plates at 3-10×10^3 cells/well in 100 μL of culture medium. The following day, different concentrations of candidate compounds were added and the cells incubated at 37° C. for 48 h. Subsequently, 10 μL/well of WST-1 reagent was added and the cells reincubated for 1 hour. After the incubation time, absorbance was measured.
(§4) WST-1 is a tetrazolium salt which is cleaved to formazan dye by cellular enzymes. An expansion in the number of viable cells results in an increase in the overall activity of mitochondrial dehydrogenases in the sample. This augmentation in the enzyme activity leads to an increase in the amount of formazan dye formed, which directly correlates to the number of metabolically active cells in the culture. The formazan dye produced is quantified by a scanning multiwell spectrophotometer by measuring the absorbance of the dye solution at 450 nm wavelength (reference wavelength 690 nm).
(§5) Percent activity (% activity) in reducing the number of viable cells was calculated for each test compound as: % activity={(S^c−B)/(S°−B)}×100 wherein S^c denotes signal measured in the presence of the compound being tested, S° denotes signal measured in the absence of the compound being tested, and B denotes the background signal measured in blank wells containing medium only. […] IC50 values were calculated using the software package Prism 3.0 (GraphPad Software Inc., San Diego, Calif.), setting top value at 100 and bottom value at 0.
(Tetrazolium assays rely on reduction of a dye to a coloured formazan, in cell work by metabolically active cells.)

Data set [2] deals with K11 HPV E7 transformed human keratinocyte line. The data set is described as follows: Secondary assay: cell proliferation inhibition WST-1, K11. The format is cell-based. The note with it: K11 cells, 48 h. The protocol:
as §1
K11—HPV E7 transformed human keratinocyte line provided by Pidder Jansen-Duerr, Institut für Biomedizinische Alternsforschung, Innsbruck, Austria.
as §3, §4, §5

The test system of data set [3] is HeLa cells. Description: Secondary assay: cell proliferation inhibition WST-1, HeLa. The note with it: Homo sapiens, 48 h. Type of data set: cell-based. The protocol: as §1
HeLa—Human cervical adenocarcinoma cell line (ATCC ref. No. CCL-2).
as §2, §3, §4, §5

The subject of data set [4] is HDAC (HeLa cell extract). The data set is described as follows: Primary assay: deacetylase activity (HDAC inhibition), HeLa cell extract. Also on record: species or system human. The note with it: HeLa cell extract as HDAC source; read-out: Biochemical Assay Data HDAC Inhibition (IC50) HeLa. The source says: Briefly, this assay relies on the release of radioactive acetate from a radioactively labelled histone fragment by the action of HDAC enzyme. Test compounds, which inhibit HDAC, reduce the yield of radioactive acetate. Signal (e.g., scintillation counts) measured in the presence and absence of a test compound provide an indication of that compound's ability to inhibit HDAC activity. Decreased activity indicates increased inhibition by the test compound.
The histone fragment was an N-terminal sequence from histone H4, and it was labelled with radioactively labelled acetyl groups using tritiated acetylcoenzyme A (coA) in conjunction with an enzyme which is the histone acetyltransferase domain of the transcriptional coactivator p300. […] The acetylated peptide was then separated from free acetyl coA by size exclusion chromatography on Sephadex G-15 (Sigma G-15-120), using distilled H2O as the mobile phase.
After purification of the radiolabelled histone fragment, it was incubated with a source of HDAC (e.g., an extract of HeLa cells (a rich source of HDAC), recombinantly produced HDAC1 or HDAC2) and any released acetate was extracted into an organic phase and quantitatively determined using scintillation counting. By including a test compound with the source of HDAC, that compound's ability to inhibit the HDAC was determined.
Alternatively, the activity of the compounds as HDAC inhibitors was determined using a commercially available fluorescent assay kit: (Fluor de Lys™, BioMol Research Labs, Inc., Plymouth Meeting, USA).
Extensive comparative studies have shown that Primary Assay (1) and Primary Assay (2), discussed above, yield equivalent results. Primary Assay results reported herein are (a) exclusively from (1); (b) exclusively from (2); or (c) from both (1) and (2).
The HeLa cell extract was made from HeLa cells (ATCC Ref. No. CCL-2) by freeze-thawing three times in 60 mM TrisCl pH 8.0, 450 mM NaCl, 30% glycerol. Two cell volumes of extraction buffer were used, and particulate material was centrifuged out (20800 g, 4° C., 10 min). The supernatant extract having deacetylase activity was aliquoted and frozen for storage.
Percent activity (% activity) for each test compound was calculated as: % activity={(S^c−B)/(S°−B)}×100 wherein S^c denotes signal measured in the presence of enzyme and the compound being tested, S° denotes signal measured in the presence of enzyme but in the absence of the compound being tested, and B denotes the background signal measured in the absence of both enzyme and compound being tested.

In general, melting point refers to the temperature of the solid-liquid transition. For the molecule `O=C(/C=C/c1cnc2ccccc2n1)NO` (as salt: sodium) [PX118840, (E)-3-(2-Quinoxalinyl)-N-hydroxy-2-propenamide sodium salt], the melting point is 200 to 202 °C (dec.).
A word on the IC50: it is the concentration that inhibits the measured activity by half. As to `Nc1ccccc1NC(=O)c1ccc(CNC(=O)OCc2cccnc2)cc1` [MS-275], the results for the IC50 in data set [1] and in data set [2] were 365 nM and 9160 nM, respectively.
Take `O=C(/C=C/c1ccc2ccccc2n1)NO` [PX117449, (E)-N-Hydroxy-3-(2-quinolinyl)-2-propenamide]: the melting point lay within 159.5 to 160.5 °C. The same molecule had an IC50 in data set [3] of 1800 nM. For the same molecule, in data set [4], the IC50 is 35 nM. Besides, the IC50 in data set [1] (Homo sapiens) was 1000 nM. In addition, the IC50 in data set [2] (Homo sapiens, Keratinocyte) worked out at 12400 nM.
Molecule `O=C(CCc1ccc2ccccc2n1)NO` [PX118828, N-Hydroxy-3-(2-quinolinyl)propanamide] showed a melting point of 159 to 160 °C. In data set [3], the IC50 was 27200 nM. Further, the IC50 in data set [4] was found to be 250 nM.
For the molecule `O=C(/C=C/c1nc2ccccc2o1)NO` [PX118835, (E)-3-(1,3-Benzoxazol-2-yl)-N-hydroxy-2-propenamide], the IC50 in data set [3] came to 1700 nM; in data set [4], 32 nM.
With `Cc1ccc2nc(/C=C/C(=O)NO)ccc2c1` [PX118839, (E)-3-(6-Methyl-2-quinolinyl)-N-hydroxy-2-propenamide], the melting point is 200 to 202 °C (dec.). This molecule displayed an IC50 in data set [3] of 2400 nM. The IC50 in data set [4] came out at 40 nM.
As for `O=C(/C=C/c1cnc2ccccc2n1)NO` [PX118840, (E)-3-(2-Quinoxalinyl)-N-hydroxy-2-propenamide sodium salt], the results for the IC50 in data set [3] and in data set [4] were 2100 nM and 42 nM, respectively.
The molecule `Cc1ccc2nc(/C=C/C(=O)NO)cc(C)c2c1` [PX118864, (E)-3-(4,6-Dimethyl-2-quinolinyl)-N-hydroxy-2-propenamide] gave a melting point of 199 to 201 °C. Moreover, in data set [3], half-maximal inhibition (IC50) was put at 1300 nM. The IC50 in data set [4] was determined as 609 nM.
On to `COc1ccc2nc(/C=C/C(=O)NO)ccc2c1Br` [PX118865, (E)-3-(5-Bromo-6-methoxy-2-quinolinyl)-N-hydroxy-2-propenamide], for which the melting point lay in the range of 204 to 206 °C. In data set [3], this molecule showed an IC50 of 1400 nM. The IC50 in data set [4] was determined as 218 nM.
For `Cc1nc2ccccc2nc1/C=C/C(=O)NO` [PX118866, (E)-N-Hydroxy-3-(3-methyl-2-quinoxalinyl)-2-propenamide], the melting point lay within 170 to 172 °C. For the same molecule, the IC50 in data set [3] amounted to 33100 nM.
As to `O=C(/C=C/c1ccc2cccc(OCc3ccccc3)c2n1)NO` [PX118867, (E)-3-[8-(Benzyloxy)-2-quinolinyl]-N-hydroxy-2-propenamide], the melting point was in the range of 180 to 182 °C. Besides, in data set [3], the IC50 turned out to be 3900 nM. The IC50 in data set [4] came out at 262 nM.
For `Cc1ccc2ccc(/C=C/C(=O)NO)nc2c1` [PX118869, (E)-N-Hydroxy-3-(7-methyl-2-quinolinyl)-2-propenamide] the same measures were 191 to 193 °C, 1500 nM and 38 nM.
For `O=C(/C=C/c1ccnc2ccccc12)NO` [PX118885, (E)-3-(4-Quinolinyl)-N-hydroxy-2-propenamide] the same measures were 204 to 206 °C, 2700 nM and 68 nM.
Take `O=C(/C=C/c1ccc2cc(F)ccc2n1)NO` [PX118886, (E)-3-(6-Fluoro-2-quinolinyl)-N-hydroxy-2-propenamide]: the IC50 in data set [3] was found to be 2600 nM; in data set [4], 44 nM.
`COc1ccc2nc(/C=C/C(=O)NO)ccc2c1` [PX118887, (E)-N-Hydroxy-3-(6-methoxy-2-quinolinyl)-2-propenamide] yielded a melting point of 172 to 175 °C. This molecule also yielded an IC50 in data set [3] of 1800 nM. Moreover, in data set [4], the 50% inhibitory concentration (IC50) came out at 28 nM.
Take `O=C(/C=C/c1nc2ccccc2s1)NO` [PX118915, (E)-3-(1,3-Benzothiazol-2-yl)-N-hydroxy-2-propenamide]: the melting point was in the range of 163 to 165 °C. The same molecule had an IC50 in data set [3] of 7200 nM. Also, the IC50 in data set [4] worked out at 30 nM.
`O=C(/C=C/c1cnc2ccccc2c1)NO` [PX118987, (E)-N-Hydroxy-3-(3-quinolinyl)-2-propenamide] displayed a melting point of 205 to 207 °C. Moreover, the midpoint of inhibition in data set [3], the IC50, lay at 3700 nM. The IC50 in data set [4] amounted to 197 nM.
`COc1ccc2nc(C)ccc2c1/C=C/C(=O)NO` [PX119038, (E)-N-Hydroxy-3-(6-methoxy-2-methyl-5-quinolinyl)-2-propenamide] registered a melting point of 225 to 227 °C.
As for `O=C(/C=C/c1ccc2ncccc2c1)NO` [PX119039, (E)-N-Hydroxy-3-(6-quinolinyl)-2-propenamide], the IC50 worked out at 14100 nM in data set [3] and 265 nM in data set [4].
As for `O=C(/C=C/c1ccc2cccnc2c1)NO` [PX119068, (E)-N-Hydroxy-3-(7-quinolinyl)-2-propenamide], the melting point lay within 203 to 205 °C. Moreover, in data set [3], it took 6700 nM to reach half-maximal inhibition (IC50). Besides, the IC50 in data set [4] turned out to be 111 nM.
Turning to `O=C(/C=C/c1cccc2cccnc12)NO` [PX119071, (E)-3-(8-Quinolinyl)-N-hydroxy-2-propenamide], the melting point is 159 to 160 °C.
In the case of `O=C(/C=C/c1cccc2ncccc12)NO` [PX119088, (E)-N-Hydroxy-3-(5-quinolinyl)-2-propenamide], the melting point is 211 to 213 °C. The IC50 in data set [3] turned out to be 17800 nM.
The molecule `O=C(CCc1nc2ccccc2[nH]c1=O)NO` [PX119094, N-Hydroxy-3-(3-oxo-3,4-dihydro-2-quinoxalinyl)propanamide] registered a melting point of 213 to 214 °C.
`O=C(CCc1ccc2cccc(O)c2n1)NO` [PX119095, N-Hydroxy-3-(8-hydroxy-2-quinolinyl)propanamide]: the melting point is 165 to 167 °C. For the same molecule, the IC50 in data set [3] amounted to 22300 nM.
As for `O=C(/C=C/C=C/c1ccc2ccccc2n1)NO` [PX119135, (2E,4E)-N-Hydroxy-5-(2-quinolinyl)-2,4-pentadienamide], the melting point is 160 to 162 °C. The IC50 in data set [4] was 330 nM.
Consider `Cc1ccc2nc(CCC(=O)NO)cc(C)c2c1` [PX119138, 3-(4,6-Dimethyl-2-quinolinyl)-N-hydroxypropanamide], for which the melting point lay in the range of 192 to 194 °C. The IC50 in data set [4] was determined as 619 nM.
For `O=C(NO)c1ccc(OCc2ccc3ccccc3n2)cc1` [PX119141, N-Hydroxy-4-(2-quinolinylmethoxy)benzamide] the same measures were 202 to 204 °C and 186 nM.
For the molecule `CC(/C=C/C(=O)NO)=C\[C@@H](C)C(=O)c1ccc(N(C)C)cc1` [TSA, trichostatin A], the IC50 in data set [3] was determined as 350 nM; in data set [1] (Homo sapiens), 42 nM; in data set [2] (Homo sapiens, Keratinocyte), 380 nM.
Turning to oxamflatin, the IC50 in data set [1] amounted to 170 nM.
